This passage reports GI50 and TGI results from PubChem BioAssay (NCI).

Among the test systems are A549 NSCLC; MOLT-4 leukemia; EKVX NSCLC; NCI-H522 lung; U251 CNS; CCRF-CEM leukemia; SR leukemia; IGROV1 ovarian; HOP-92 NSCLC; M14 melanoma.
Holding throughout (experiment): NCI-60 cell line screen, 48 h

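How tested: cells in 96-well plates exposed to compound for 48 hours at five concentrations. Abbreviation: GI50, concentration required for 50% inhibition of growth. TGI: concentration producing complete growth inhibition.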 A value given as a limit tells only on which side of the number the result lay.

In the case of `C=CC(=O)Nc1cccc(C)c1Nc1ncc2cc(-c3c(Cl)c(OC)cc(OC)c3Cl)ccc2n1`, the GI50 with A549 NSCLC was 7.27 µM; in the test on MOLT-4 leukemia, 1.76 µM; in the test with EKVX NSCLC it was 6.85 µM; in the test on NCI-H522 lung it was 10.2 µM; in the test on U251 CNS it was 2.3 µM; in the test on CCRF-CEM leukemia, 4.44 µM. Further, the GI50 with SR leukemia was 2.75 µM; in the test on IGROV1 ovarian it was 8.18 µM; in the test on HOP-92 NSCLC it was 6.99 µM; in the test on M14 melanoma it was 7.44 µM. In addition, the TGI is 97.4 µM in the test with A549 NSCLC; 7.61 µM with MOLT-4 leukemia; 52.9 µM with EKVX NSCLC; 26.9 µM in the test on NCI-H522 lung; 16.5 µM with U251 CNS; more than 100 µM in the test on CCRF-CEM leukemia. Moreover, the TGI with SR leukemia was more than 100 µM; in the test on IGROV1 ovarian, 26 µM; in the test on HOP-92 NSCLC it was 36.8 µM; in the test on M14 melanoma it was 57.2 µM.

For the compound `COc1cc(/C=C2/C(=O)NC(Cc3cc(OC)c(OC)c(C)c3OC)C(=O)N2Cc2ccccc2)c(OC)c(C)c1OC` (centres undefined), the TGI is more than 100 µM in the test with A549 NSCLC; 70.5 µM in the test on MOLT-4 leukemia; more than 100 µM in the test with EKVX NSCLC; 60.2 µM in the test on NCI-H522 lung; more than 100 µM with U251 CNS; more than 100 µM in the test on CCRF-CEM leukemia. Also, the TGI in the test with SR leukemia is 54.1 µM; in the test with IGROV1 ovarian it was more than 100 µM; with HOP-92 NSCLC it was 71.9 µM; in the test with M14 melanoma it was more than 100 µM.

For the compound `CN(C)c1ccc(O)c2c1C[C@H]1C[C@H]3[C@H](N(C)C)C(=O)C(C(N)=O)=C(O)[C@@]3(O)C(=O)C1=C2O`, the GI50 is 5.65 µM in the test with A549 NSCLC; 10.7 µM with MOLT-4 leukemia; 6.7 µM with EKVX NSCLC; 4.5 µM in the test with U251 CNS; 6.27 µM in the test on CCRF-CEM leukemia; 3.48 µM in the test on SR leukemia. For the same compound, the GI50 in the test on IGROV1 ovarian is 3.42 µM; in the test with HOP-92 NSCLC, 3.6 µM; in the test on M14 melanoma, 5.09 µM. In addition, the TGI in the test with A549 NSCLC is more than 100 µM; with MOLT-4 leukemia, 40.6 µM; in the test on EKVX NSCLC, more than 100 µM; in the test on U251 CNS, 57.1 µM; with CCRF-CEM leukemia it was 65.9 µM; in the test on SR leukemia, 22.3 µM. Also, the TGI in the test on IGROV1 ovarian is 27.8 µM; in the test on HOP-92 NSCLC, 26.9 µM; in the test with M14 melanoma, 65.9 µM.

As for `COc1ccccc1/C=N/N=C(\N)NO`, the TGI was 81.1 µM in the test with A549 NSCLC; more than 100 µM in the test with MOLT-4 leukemia; more than 100 µM in the test with EKVX NSCLC; 66.9 µM in the test with NCI-H522 lung; more than 100 µM in the test with U251 CNS; more than 100 µM in the test on CCRF-CEM leukemia. Further, the values for the TGI in the test on SR leukemia, with IGROV1 ovarian and in the test with HOP-92 NSCLC were more than 100 µM, more than 100 µM and 65.6 µM, respectively.

On to `Cc1cccc2c1C/C(=C1\CCc3c(C)cccc31)C2=O`, for which the TGI in the test with A549 NSCLC, in the test on MOLT-4 leukemia, in the test with EKVX NSCLC, in the test with U251 CNS, in the test on CCRF-CEM leukemia and in the test on SR leukemia was more than 100 µM throughout. Moreover, the TGI in the test on IGROV1 ovarian and with M14 melanoma was more than 100 µM each time.

`O=C(N/C(=C\c1ccc(Oc2ccc(Cl)c(Cl)c2)cc1)c1nc2ccccc2[nH]1)c1ccccc1`: the TGI came to 54.4 µM with A549 NSCLC; 93.4 µM with MOLT-4 leukemia; 50.5 µM in the test with EKVX NSCLC; 35.5 µM with NCI-H522 lung; 27.4 µM in the test with U251 CNS; 88.5 µM in the test on CCRF-CEM leukemia. Besides, the TGI in the test on SR leukemia worked out at 85 µM; in the test on HOP-92 NSCLC, 23.5 µM; with M14 melanoma, 34.8 µM.

As to `COC(=O)c1cc2oc(/C=C3\SC(=S)N(NC(C)=O)C3=O)cc2n1Cc1ccccc1`, the GI50 in the test with A549 NSCLC was 5.2 µM; with MOLT-4 leukemia, 1.97 µM; in the test with EKVX NSCLC it was 3.08 µM; in the test with NCI-H522 lung, more than 50 µM; with U251 CNS, 1.37 µM; in the test on SR leukemia, 1.11 µM. Moreover, the GI50 was 7.31 µM in the test on IGROV1 ovarian, 0.196 µM in the test with HOP-92 NSCLC and 8.04 µM in the test with M14 melanoma. Moreover, the TGI in the test on A549 NSCLC was 17.9 µM; in the test with MOLT-4 leukemia, more than 50 µM; with EKVX NSCLC it was 15.3 µM; in the test with NCI-H522 lung, more than 50 µM; in the test with U251 CNS, 4.49 µM; in the test on SR leukemia it was more than 50 µM. The TGI is more than 50 µM with IGROV1 ovarian, 2.59 µM in the test on HOP-92 NSCLC and 16.4 µM in the test on M14 melanoma.

Take `CN1CCn2c(c(Sc3ccc(C(=O)NO)cc3)c3ccccc32)C1=O`: the GI50 in the test on A549 NSCLC is 3.45 µM; with MOLT-4 leukemia it was 2.87 µM; in the test with NCI-H522 lung it was 1.13 µM; in the test on U251 CNS, 1.79 µM; in the test with CCRF-CEM leukemia, 1.23 µM; in the test on SR leukemia, 2.65 µM. The GI50 in the test with IGROV1 ovarian is 1.82 µM; with HOP-92 NSCLC it was 1.67 µM; in the test with M14 melanoma, 1.77 µM. Moreover, the TGI in the test on A549 NSCLC is 13 µM; in the test with MOLT-4 leukemia, more than 33.8 µM; in the test on NCI-H522 lung, 2.66 µM; in the test on U251 CNS, 4 µM; with CCRF-CEM leukemia, more than 27.8 µM; with SR leukemia, more than 100 µM. Also, the TGI came out at 3.85 µM in the test on IGROV1 ovarian, 3.53 µM with HOP-92 NSCLC and 3.99 µM with M14 melanoma.

For the compound `Clc1nc(Cl)c(Cc2ccccc2)c(Cl)n1`, the TGI is 27.5 µM in the test with A549 NSCLC; more than 100 µM with MOLT-4 leukemia; 33.2 µM in the test on EKVX NSCLC; 3.04 µM in the test with NCI-H522 lung; 33.8 µM with U251 CNS; more than 100 µM in the test on CCRF-CEM leukemia. Further, the TGI in the test on SR leukemia was more than 100 µM; in the test with IGROV1 ovarian, 46.7 µM; with M14 melanoma, 8.38 µM.

Turning to `COc1cc(-c2oc3c(OC)c(O)c(OC)c(O)c3c(=O)c2OC)ccc1O`, the TGI with A549 NSCLC is more than 100 µM; in the test with MOLT-4 leukemia, more than 100 µM; in the test with EKVX NSCLC, more than 100 µM; in the test on NCI-H522 lung, 66.9 µM; with U251 CNS, more than 100 µM; in the test with CCRF-CEM leukemia it was more than 100 µM. Also, the results for the TGI in the test on SR leukemia, in the test on IGROV1 ovarian and in the test on M14 melanoma were more than 100 µM, 65.9 µM and 96 µM, respectively.

Regarding `CCOC1C=CCCO1` (centres undefined), the TGI in the test with A549 NSCLC, in the test on MOLT-4 leukemia, with EKVX NSCLC, in the test on NCI-H522 lung, with CCRF-CEM leukemia and with SR leukemia was more than 100 µM throughout. Further, the TGI with IGROV1 ovarian, with HOP-92 NSCLC and with M14 melanoma was more than 100 µM in each case.

As to `Cc1nn(-c2nc3ccccc3[nH]2)c2c1C(c1ccc3c(c1)OCO3)CC(=O)N2` (centres undefined), the GI50 with A549 NSCLC is 2.56 µM; with MOLT-4 leukemia it was 0.0422 µM; with NCI-H522 lung, 2.22 µM; in the test on U251 CNS, 2.14 µM; with CCRF-CEM leukemia it was 1.94 µM; in the test on SR leukemia, 2.82 µM. For the same compound, the GI50 was 2.36 µM in the test on IGROV1 ovarian, 2.66 µM in the test on HOP-92 NSCLC and 2.31 µM in the test on M14 melanoma. Moreover, the TGI with A549 NSCLC is 7.73 µM; in the test with MOLT-4 leukemia it was 0.214 µM; in the test on NCI-H522 lung it was 5.41 µM; with U251 CNS, 4.79 µM; in the test on CCRF-CEM leukemia, more than 24.7 µM; with SR leukemia it was more than 24.9 µM. Besides, the TGI in the test on IGROV1 ovarian is 4.57 µM; in the test with HOP-92 NSCLC, 7.14 µM; with M14 melanoma it was 5.98 µM.

In the case of `Cc1ccc(N2C(=O)/C(=C/c3ccc(N(CCC#N)CCC#N)cc3C)N=C2c2cc([N+](=O)[O-])ccc2Cl)cc1`, the TGI in the test with A549 NSCLC, in the test with MOLT-4 leukemia, with NCI-H522 lung, in the test on U251 CNS, with CCRF-CEM leukemia and in the test on SR leukemia was more than 100 µM in each case. Moreover, the TGI in the test with IGROV1 ovarian, in the test on HOP-92 NSCLC and with M14 melanoma was more than 100 µM in each case.

Consider `O=C(CCCCCCC(=O)Nc1ccc2c(c1)/C(=C/c1ccc[nH]1)C(=O)N2)NO`, for which the GI50 is 2.87 µM in the test on A549 NSCLC; 0.289 µM with MOLT-4 leukemia; 0.0829 µM with NCI-H522 lung; 0.416 µM in the test on U251 CNS; 0.0923 µM in the test with CCRF-CEM leukemia; 0.253 µM in the test on SR leukemia. Also, the GI50 was 1.61 µM with IGROV1 ovarian, 0.317 µM with HOP-92 NSCLC and 0.427 µM in the test on M14 melanoma. The TGI in the test with A549 NSCLC is 15.2 µM; with MOLT-4 leukemia, more than 100 µM; in the test with NCI-H522 lung, 0.891 µM; in the test on U251 CNS, 2.29 µM; in the test with CCRF-CEM leukemia it was more than 100 µM; in the test on SR leukemia, more than 100 µM. Also, the TGI is 7.9 µM in the test on IGROV1 ovarian, 2.76 µM in the test with HOP-92 NSCLC and 10 µM in the test with M14 melanoma.

Regarding `O=C(NCP(=O)(O)O)c1cccnc1`, the TGI in the test on A549 NSCLC, in the test with MOLT-4 leukemia, in the test on EKVX NSCLC, in the test on U251 CNS, in the test with CCRF-CEM leukemia and in the test with SR leukemia was more than 100 µM in each case. Besides, the TGI in the test on IGROV1 ovarian, in the test with HOP-92 NSCLC and in the test on M14 melanoma was more than 100 µM in each case.

Turning to `CCOC(=O)NC(=O)c1cn(CCN2CCN(C(=O)NCCCCCCNC(=O)N3CCN(CCn4cc(C(=O)NC(=O)OCC)c(=O)n(CCN(CC)CC)c4=O)CC3)CC2)c(=O)n(CCC(CC)CC)c1=O`, the TGI in the test with A549 NSCLC, in the test on EKVX NSCLC, with NCI-H522 lung, in the test with U251 CNS, in the test with SR leukemia and in the test on IGROV1 ovarian was more than 100 µM each time. Also, the TGI in the test on HOP-92 NSCLC and in the test with M14 melanoma was more than 100 µM in each case.
